{"source": "patent US10315999B2", "about": "“Processes for the preparation of pesticidal compounds” (Dow AgroSciences LLC, priority 2013, dated 2019)", "key": {"[1]": {"system": "Sweetpotato Whitefly Crawler (Bemisia tabaci) (BEMITA)", "experiment": "Bioassay on Sweetpotato Whitefly Crawler, cotton plant foliar spray", "format": "in vivo", "conditions": "read-out: BEMITA rating (% Control of Mortality, Abbott corrected)", "protocol": "Cotton plants grown in 3-inch pots, with 1 small (3-5 cm) true leaf, were used at test substrate. The plants were placed in a room with whitely adults. Adults were allowed to deposit eggs for 2-3 days. After a 2-3 day egg-laying period, plants were taken from the adult whitefly room. Adults were blown off leaves using a hand-held Devilbliss sprayer (23 psi). Plants with egg infestation (100-300 eggs per plant) were placed in a holding room for 5-6 days at 82° F. and 50% RH for egg hatch and crawler stage to develop. Four cotton plants were used for each treatment. Compounds (2 mg) were dissolved in 1 mL of acetone solvent, forming stock solutions of 2000 ppm. The stock solutions were diluted 10× with 0.025% Tween 20 in water to obtain a test solution at 200 ppm. A hand-held Devilbliss sprayer was used for spraying a solution to both sides of cotton leaf until runoff. Reference plants (solvent check) were sprayed with the diluent only. Treated plants were held in a holding room for 8-9 days at approximately 82° F. and 50% RH prior to grading. Evaluation was conducted by counting the number of live nymphs per plant under a microscope."}, "[2]": {"system": "Green Peach Aphid (Myzus persicae) (MYZUPE)", "experiment": "Bioassay on Green Peach Aphid (GPA), cabbage seedling foliar spray", "format": "in vivo", "conditions": "72 h, read-out: MYZUPE rating (% Control of Mortality, Abbott corrected)", "protocol": "Several molecules disclosed herein were tested against GPA using procedures described below.\nCabbage seedling grown in 3-in pots, with 2-3 small (3-5 cm) true leaves, were used as test substrate. The seedlings were infested with […] (wingless adult and nymph stages) one day prior to chemical application. Four pots with individual seedlings were used for each treatment. Test compounds (2 mg) were dissolved in 2 mL of acetone/MeOH (1:1) solvent, forming stock solutions of 1000 ppm test compound. The stock solutions were diluted 5× with 0.025% Tween 20 in water to obtain the solution at 200 ppm test compound. A hand-held aspirator-type sprayer was used for spraying a solution to both sides of the cabbage leaves until runoff. Reference plants (solvent check) were sprayed with the diluent only containing 20% by volume acetone/MeOH (1:1) solvent. Treated plants were held in a holding room for three days at approximately 25° C. and ambient relative humidity (RH) prior to grading. Evaluation was conducted by counting the number of live aphids per plant under a microscope. Percent Control was measured by using Abbott's correction formula (W. S. Abbott, “A Method of Computing the Effectiveness of an Insecticide” J. Econ. Entomol 18 (1925), pp. 265-267) as follows. Corrected % Control=100*(X−Y)/X • where • X=No. of live aphids on solvent check plants and • Y=No. of live aphids on treated plants\nThe results are indicated in the table entitled “Table 1: GPA (MYZUPE) and sweetpotato whitefly-crawler (BEMITA) Rating Table”."}, "[3]": {"conditions": "200 ppm spray on cotton plants, live nymphs counted after 8-9 days"}, "[4]": {"conditions": "200 ppm spray on cabbage seedlings, live aphids counted after three days"}}, "note": "Where a name gives a salt, the structure may show the parent alone. Read-outs that look alike come from different tables or passages of the source."}
{"smiles": "Nc1c[nH]nc1Cl", "note": "[Compound 1a, 3-Chloro-1H-pyrazol-4-amine hydrochloride]", "values": [{"measurement": "mortality at 200 ppm", "setting": "[1]", "result": "0 to 80", "unit": "%"}, {"measurement": "mortality at 200 ppm", "setting": "[2]", "result": "0 to 80", "unit": "%"}]}
{"smiles": "CC(=O)Nc1c[nH]nc1Cl", "note": "[Compound 1b, N-(3-Chloro-1H-pyrazol-4-yl)acetamide]", "values": [{"measurement": "mortality at 200 ppm", "setting": "[1]; [3]", "result": "0 to 80", "unit": "%"}, {"measurement": "mortality at 200 ppm", "setting": "[2]; [4]", "result": "0 to 80", "unit": "%"}]}
{"smiles": "CC(=O)Nc1cn(-c2cccnc2)nc1Cl", "note": "[Compound 1c, N-(3-Chloro-1-(pyridin-3-yl)-1H-pyrazol-4-yl)acetamide]", "values": [{"measurement": "mortality at 200 ppm", "setting": "[1]; [3]", "result": "0 to 80", "unit": "%"}, {"measurement": "mortality at 200 ppm", "setting": "[2]; [4]", "result": "0 to 80", "unit": "%"}]}
{"smiles": "CCNc1cn(-c2cccnc2)nc1Cl", "note": "[Compound 1d, 3-Chloro-N-ethyl-1-(pyridin-3-yl)-1H-pyrazol-amine]", "values": [{"measurement": "mortality at 200 ppm", "setting": "[1]; [3]", "result": "0 to 80", "unit": "%"}, {"measurement": "mortality at 200 ppm", "setting": "[2]; [4]", "result": "0 to 80", "unit": "%"}]}
{"smiles": "CCN(C(=O)CCSCCC(F)(F)F)c1cn(-c2cccnc2)nc1Cl", "note": "[Compound 5.1, N-(3-Chloro-1-(pyridin-3-yl)-1H-pyrazol-4-yl)-N-ethyl-3-((3,3,3-trifluoropropyl)thio)propanamide]", "values": [{"measurement": "mortality at 200 ppm", "setting": "[1]; [3]", "result": "80 to 100", "unit": "%"}, {"measurement": "mortality at 200 ppm", "setting": "[2]; [4]", "result": "80 to 100", "unit": "%"}]}
{"smiles": "CCN(C(=O)CC[S+]([O-])CCC(F)(F)F)c1cn(-c2cccnc2)nc1Cl", "note": "(stereo not drawn) [Compound 8.1, N-(3-Chloro-1-(pyridin-3-yl)-1H-pyrazol-4-yl)-N-ethyl-3-((3,3,3-trifluoropropyl)sulfoxo)propanamide]", "values": [{"measurement": "mortality at 200 ppm", "setting": "[1]; [3]", "result": "80 to 100", "unit": "%"}, {"measurement": "mortality at 200 ppm", "setting": "[2]; [4]", "result": "80 to 100", "unit": "%"}]}
